According to patent US20050113577A1, “Solid forms of slats with tyrosine kinase activity” (priority 2002, published 2005):

Assays:
human KDR = target: T1, human KDR (Homo sapiens, UniProt P35968); assay: VEGF Receptor Kinase Assay; format: biochemical; conditions: tested by the assays described (KDR, HUVEC, Flt-1, Flt-3); no values given
T1 construct: cloning the cytoplasmic domain of the KDR kinase as an in frame fusion at the carboxy terminus of the GST gene; made in house; host or cells: Spodoptera frugiperda (Sf21) insect cells, baculovirus vector pAcG2T
T1 sequence (P35968 786-1356 limits assumed): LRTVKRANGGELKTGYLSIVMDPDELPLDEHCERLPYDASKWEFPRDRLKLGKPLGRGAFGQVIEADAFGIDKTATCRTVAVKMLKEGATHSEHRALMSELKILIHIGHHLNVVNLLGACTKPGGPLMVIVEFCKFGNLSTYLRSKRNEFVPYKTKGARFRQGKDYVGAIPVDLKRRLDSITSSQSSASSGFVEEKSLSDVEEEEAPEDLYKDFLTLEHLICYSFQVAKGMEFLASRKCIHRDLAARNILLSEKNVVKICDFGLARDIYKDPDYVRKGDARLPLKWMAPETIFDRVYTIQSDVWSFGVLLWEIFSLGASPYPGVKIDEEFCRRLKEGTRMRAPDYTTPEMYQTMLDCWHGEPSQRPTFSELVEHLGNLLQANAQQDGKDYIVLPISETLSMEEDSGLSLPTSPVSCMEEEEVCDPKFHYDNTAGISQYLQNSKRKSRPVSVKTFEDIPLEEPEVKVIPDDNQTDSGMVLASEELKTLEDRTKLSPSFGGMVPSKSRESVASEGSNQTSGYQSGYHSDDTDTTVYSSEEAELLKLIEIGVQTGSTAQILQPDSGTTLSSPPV
Procedure: Other assays are known in the literature and could be readily performed by those of skill in the art (see, for example, Dhanabal et al., Cancer Res. 59:189-197; Xin et al., J. Biol. Chem. 274:9116-9121; Sheu et al., Anticancer Res. 18:4435-4441; Ausprunk et al., Dev. Biol. 38:237-248; Gimbrone et al., J. Natl. Cancer Inst. 52:413-427; Nicosia et al., In Vitro 18:538-549).
VEGF receptor kinase activity is measured by incorporation of radio-labeled phosphate into polyglutarnic acid, tyrosine, 4:1 (pEY) substrate. The phosphorylated pEY product is trapped onto a filter membrane and the incorporation of radio-labeled phosphate quantified by scintillation counting.
The intracellular tyrosine kinase domains of human KDR (Tennan, B. I. et al. Oncogene (1991) vol. 6, pp. 1677-1683.) and Flt-1 (Shibuya, M. et al. Oncogene (1990) vol. 5, pp. 519-524) were cloned as glutathione S-transferase (GST) gene fusion proteins. This was accomplished by cloning the cytoplasmic domain of the KDR kinase as an in frame fusion at the carboxy terminus of the GST gene. Soluble recombinant GST-kinase domain fusion proteins were expressed in Spodoptera frugiperda (Sf21) insect cells (Invitrogen) using a baculovirus expression vector (pAcG2T, Pharmingen). […]

[1] = Partition coefficient between 1-octanol and water; format: physicochemical; conditions: 1-octanol/water; pH (equilibrium) 3.8 (native); 0.033 mg/mL in aqueous phase at start
Procedure: Partition coefficient of Form A between I-octanol and water were determined at the native pH of the HCl Salt (Table III).

[2] = Solid form stability in suspension/slurry (XRPD); format: physicochemical
Procedure: An X-ray powder diffraction pattern of Form A is indicative of a crystalline material with multiple diffraction peaks between 5° and 30° 2-theta.

[3] = Solubility in water and organic solvents at room temperature (suspended for 7 days); format: physicochemical
Procedure: [table] The solubility of Form A HCl Salt at room temperature was determined in water and several organic solvents that can be used in pharmaceutical processing.

[4] = Solubility in various aqueous solvent systems measured for 20 hours; format: physicochemical
Procedure: [table] The solubility of Form A in various aqueous solvent systems was measured for a period of 20 hours.

[5] = Hygroscopicity, step isotherm program 0 to 95% RH; format: physicochemical; conditions: 25° C.
Procedure: The hygroscopicity of Form A was determined at 25° C. using a step isotherm program for relative humidities from 0 to 95% RH under nitrogen flow.

CS(=O)(=O)N1CCN(Cc2ccc3[nH]c(-c4cc5ccccc5[nH]c4=O)cc3c2)CC1 [Compound 1-11, 3-[5-(4-Methanesulfonyl-piperazin-1-ylmethyl)-1H-indol-2-yl]-1H-quinolin-2-one]
kinase inhibitory activity (human KDR): inhibits the kinase KDR

CS(=O)(=O)N1CCN(Cc2ccc3[nH]c(-c4cc5ccccc5[nH]c4=O)cc3c2)CC1.Cl [Form A, hydrochloride salt of 3-[5-(4-methanesulfonyl-piperazin-1-ylmethyl)-1H-indol-2-yl]-1H-quinolin-2-one]
log P (log Ko/w) [1]: −4.34 | Change in crystal structure (XRPD) ([2]; suspended in aqueous ethanol for seven days at RT): No change in crystal structure | Solubility ([3]; Aqueous ETOH (50%)): 4340 µg/mL | Solubility ([3]; Aqueous IPA (50%)): 3990 µg/mL | Solubility ([3]; Ethanol): 130 µg/mL | Solubility ([3]; Isopropanol): 57 µg/mL | Solubility ([3]; Water): 260 µg/mL | Solubility ([4]; 10% EtOH): 380 µg/mL | Solubility ([4]; 10% IPA): 470 µg/mL | Solubility ([4]; 25% EtOH): 1060 µg/mL | Solubility ([4]; 25% IPA): 1780 µg/mL | Solubility ([4]; 50% Acetone): 10660 µg/mL | Solubility ([4]; 50% EtOH): 3820 µg/mL | Solubility ([4]; 50% IPA): 4390 µg/mL | Solubility ([4]; 75% EtOH): 3860 µg/mL | Solubility ([4]; 75% IPA): 2290 µg/mL | Solubility ([4]; Acetone): 61 µg/mL | Hygroscopicity ([5]; 0 to 95% RH under nitrogen flow): not hygroscopic | Moisture reversibly adsorbed ([5]; 75% RH): approximately 1%

CS(=O)(=O)N1CCN(Cc2ccc3[nH]c(-c4cc5ccccc5[nH]c4=O)cc3c2)CC1.Cl [Form E, hydrochloride salt of 3-[5-(4-methanesulfonyl-piperazin-1-ylmethyl)-1H-indol-2-yl]-1H-quinolin-2-one]
Solid form after slurry ([2]; slurry in water at room temperature for seven days): provided Form D crystalline solid
